{"source": "PubChem BioAssay AID1259407", "about": "(Chemical Carcinogenesis Research Information System (CCRIS), 2018)", "test_system": "CCRIS mutagenicity, Ames/micronucleus/aberration tests", "assay": "CCRIS mutagenicity studies", "key": {"[1]": {"settings": "Test System: AMES SALMONELLA TYPHIMURIUM, Strain/Indicator: TA98, Metabolic Activation: NONE, Method: STANDARD PLATE"}, "[2]": {"settings": "Test System: AMES SALMONELLA TYPHIMURIUM, Strain/Indicator: TA100, Metabolic Activation: NONE, Method: STANDARD PLATE"}, "[3]": {"settings": "Test System: AMES SALMONELLA TYPHIMURIUM, Strain/Indicator: TA98, Metabolic Activation: RAT, LIVER, S-9, AROCLOR 1254, Method: STANDARD PLATE"}, "[4]": {"settings": "Test System: AMES SALMONELLA TYPHIMURIUM, Strain/Indicator: TA100, Metabolic Activation: RAT, LIVER, S-9, AROCLOR 1254, Method: STANDARD PLATE"}, "[5]": {"settings": "Test System: AMES SALMONELLA TYPHIMURIUM, Strain/Indicator: TA1535, Metabolic Activation: NONE, Method: STANDARD PLATE"}, "[6]": {"settings": "Test System: AMES SALMONELLA TYPHIMURIUM, Strain/Indicator: TA1535, Metabolic Activation: RAT, LIVER, S-9, AROCLOR 1254, Method: STANDARD PLATE"}, "[7]": {"settings": "Test System: AMES SALMONELLA TYPHIMURIUM, Strain/Indicator: TA1537, Metabolic Activation: NONE, Method: STANDARD PLATE"}, "[8]": {"settings": "Test System: AMES SALMONELLA TYPHIMURIUM, Strain/Indicator: TA1537, Metabolic Activation: RAT, LIVER, S-9, AROCLOR 1254, Method: STANDARD PLATE"}, "[9]": {"settings": "Test System: AMES SALMONELLA TYPHIMURIUM, Strain/Indicator: TA1538, Metabolic Activation: NONE, Method: STANDARD PLATE"}, "[10]": {"settings": "Test System: AMES SALMONELLA TYPHIMURIUM, Strain/Indicator: TA1538, Metabolic Activation: RAT, LIVER, S-9, AROCLOR 1254, Method: STANDARD PLATE"}, "[11]": {"settings": "Test System: MOUSE LYMPHOMA, Strain/Indicator: L5178Y (TK+/TK-), Metabolic Activation: NONE, Method: SUSPENSION/PLATE"}}, "note": "Activity calls are given as the source filed them. How the calls were made is not given here.", "data": [{"smiles": "O/N=C/c1ccncc1", "values": [{"measurement": "mutagenic call", "setting": "Test System: AMES SALMONELLA TYPHIMURIUM, Strain/Indicator: TA102, Metabolic Activation: RAT, LIVER, S-9, PHENOBARBITAL AND 5,6-BENZOFLAVONE, Method: STANDARD PLATE", "result": "inactive; negative"}, {"measurement": "mutagenic call", "setting": "Test System: AMES SALMONELLA TYPHIMURIUM, Strain/Indicator: TA2638, Metabolic Activation: RAT, LIVER, S-9, PHENOBARBITAL AND 5,6-BENZOFLAVONE, Method: STANDARD PLATE", "result": "inactive; negative"}, {"measurement": "mutagenic call", "setting": "Test System: E. COLI, Strain/Indicator: WP2 (PKM101), Metabolic Activation: RAT, LIVER, S-9, PHENOBARBITAL AND 5,6-BENZOFLAVONE, Method: STANDARD PLATE", "result": "inactive; negative"}, {"measurement": "mutagenic call", "setting": "Test System: E. COLI, Strain/Indicator: WP2 UVRA (PKM101), Metabolic Activation: RAT, LIVER, S-9, PHENOBARBITAL AND 5,6-BENZOFLAVONE, Method: STANDARD PLATE", "result": "active; positive"}]}, {"smiles": "C=C(C)C(=O)OCC(O)COc1ccc(C(C)(C)c2ccc(OCC(O)COC(=O)C(=C)C)cc2)cc1", "note": "(centres undefined)", "values": [{"measurement": "mutagenic call", "setting": "Test System: AMES SALMONELLA TYPHIMURIUM, Strain/Indicator: TA97A, Metabolic Activation: NONE, Method: STANDARD PLATE", "result": "inactive; negative"}, {"measurement": "mutagenic call", "setting": "Test System: AMES SALMONELLA TYPHIMURIUM, Strain/Indicator: TA97A, Metabolic Activation: RAT LIVER S-9, PHENOBARBITAL AND BETA-NAPHTHAFLAVONE, Method: STANDARD PLATE", "result": "inactive; negative"}, {"measurement": "mutagenic call", "setting": "[1]", "result": "inactive; negative"}, {"measurement": "mutagenic call", "setting": "Test System: AMES SALMONELLA TYPHIMURIUM, Strain/Indicator: TA98, Metabolic Activation: RAT LIVER S-9, PHENOBARBITAL AND BETA-NAPHTHAFLAVONE, Method: STANDARD PLATE", "result": "inactive; negative"}, {"measurement": "mutagenic call", "setting": "[2]", "result": "inactive; negative"}, {"measurement": "mutagenic call", "setting": "Test System: AMES SALMONELLA TYPHIMURIUM, Strain/Indicator: TA100, Metabolic Activation: RAT LIVER S-9, PHENOBARBITAL AND BETA-NAPHTHAFLAVONE, Method: STANDARD PLATE", "result": "inactive; negative"}, {"measurement": "mutagenic call", "setting": "Test System: AMES SALMONELLA TYPHIMURIUM, Strain/Indicator: TA102, Metabolic Activation: NONE, Method: STANDARD PLATE", "result": "inactive; negative"}, {"measurement": "mutagenic call", "setting": "Test System: AMES SALMONELLA TYPHIMURIUM, Strain/Indicator: TA102, Metabolic Activation: RAT LIVER S-9, PHENOBARBITAL AND BETA-NAPHTHAFLAVONE, Method: STANDARD PLATE", "result": "inactive; negative"}, {"measurement": "mutagenic call", "setting": "Test System: CHINESE HAMSTER OVARY V-79, Strain/Indicator: V79 (HPRT)/6-THIOGUANINE, Metabolic Activation: NONE", "result": "inactive; negative"}]}, {"smiles": "CCCO", "values": [{"measurement": "mutagenic call", "setting": "Test System: AMES SALMONELLA TYPHIMURIUM, Strain/Indicator: TA98, Metabolic Activation: HAMSTER, LIVER, S-9, AROCLOR 1254, Method: STANDARD PLATE", "result": "inactive; negative"}, {"measurement": "mutagenic call", "setting": "[1]", "result": "inactive; negative"}, {"measurement": "mutagenic call", "setting": "[3]", "result": "inactive; negative"}, {"measurement": "mutagenic call", "setting": "Test System: AMES SALMONELLA TYPHIMURIUM, Strain/Indicator: TA100, Metabolic Activation: HAMSTER, LIVER, S-9, AROCLOR 1254, Method: STANDARD PLATE", "result": "inactive; negative"}, {"measurement": "mutagenic call", "setting": "[2]", "result": "inactive; negative"}, {"measurement": "mutagenic call", "setting": "[4]", "result": "inactive; negative"}, {"measurement": "mutagenic call", "setting": "Test System: AMES SALMONELLA TYPHIMURIUM, Strain/Indicator: TA1535, Metabolic Activation: HAMSTER, LIVER, S-9, AROCLOR 1254, Method: STANDARD PLATE", "result": "inactive; negative"}, {"measurement": "mutagenic call", "setting": "[5]", "result": "inactive; negative"}, {"measurement": "mutagenic call", "setting": "[6]", "result": "inactive; negative"}, {"measurement": "mutagenic call", "setting": "Test System: AMES SALMONELLA TYPHIMURIUM, Strain/Indicator: TA1537, Metabolic Activation: HAMSTER, LIVER, S-9, AROCLOR 1254, Method: STANDARD PLATE", "result": "inactive; negative"}, {"measurement": "mutagenic call", "setting": "[7]", "result": "inactive; negative"}, {"measurement": "mutagenic call", "setting": "[8]", "result": "inactive; negative"}, {"measurement": "mutagenic call", "setting": "Test System: AMES SALMONELLA TYPHIMURIUM, Strain/Indicator: TA1538, Metabolic Activation: HAMSTER, LIVER, S-9, AROCLOR 1254, Method: STANDARD PLATE", "result": "inactive; negative"}, {"measurement": "mutagenic call", "setting": "[9]", "result": "inactive; negative"}, {"measurement": "mutagenic call", "setting": "[10]", "result": "inactive; negative"}, {"measurement": "mutagenic call", "setting": "[11]", "result": "inactive; negative"}, {"measurement": "mutagenic call", "setting": "Test System: MOUSE LYMPHOMA, Strain/Indicator: L5178Y (TK+/TK-), Metabolic Activation: RAT, LIVER, S-9, AROCLOR 1254, Method: SUSPENSION/PLATE", "result": "inactive; negative"}]}, {"smiles": "COc1cc(N)c(C)cc1N", "values": [{"measurement": "mutagenic call", "setting": "[1]", "result": "inactive; negative"}, {"measurement": "mutagenic call", "setting": "[3]", "result": "inactive; negative"}, {"measurement": "mutagenic call", "setting": "[2]", "result": "inactive; negative"}, {"measurement": "mutagenic call", "setting": "[4]", "result": "inactive; negative"}, {"measurement": "mutagenic call", "setting": "[5]", "result": "inactive; negative"}, {"measurement": "mutagenic call", "setting": "[6]", "result": "inactive; negative"}, {"measurement": "mutagenic call", "setting": "[7]", "result": "inactive; negative"}, {"measurement": "mutagenic call", "setting": "[8]", "result": "inactive; negative"}, {"measurement": "mutagenic call", "setting": "[9]", "result": "inactive; negative"}, {"measurement": "mutagenic call", "setting": "[10]", "result": "inactive; negative"}]}, {"smiles": "O=Nc1ccc(NO)cc1", "values": [{"measurement": "mutagenic call", "setting": "End Point: IN VITRO CHROMOSOMAL ABERRATIONS, Test System: CHL CELLS, Metabolic Activation: NONE", "result": "active; positive (structural changes)"}, {"measurement": "mutagenic call", "setting": "End Point: IN VITRO CHROMOSOMAL ABERRATIONS, Test System: CHL CELLS, Metabolic Activation: RAT, LIVER, S-9, SODIUM PHENOBARBITAL AND 5,6-BENZOFLAVONE", "result": "active; positive (structural changes)"}, {"measurement": "mutagenic call", "setting": "[1]", "result": "active; positive"}, {"measurement": "mutagenic call", "setting": "Test System: AMES SALMONELLA TYPHIMURIUM, Strain/Indicator: TA98, Metabolic Activation: S-9, PHENOBARBITONE AND BETA-NAPHTHOFLAVONE, Method: STANDARD PLATE", "result": "active; positive"}, {"measurement": "mutagenic call", "setting": "Test System: E. COLI, Strain/Indicator: WP2 UVRA, Metabolic Activation: HAMSTER, LIVER, S-9, AROCLOR 1254, Method: STANDARD PLATE", "result": "inactive; negative"}, {"measurement": "mutagenic call", "setting": "Test System: E. COLI, Strain/Indicator: WP2 UVRA, Metabolic Activation: HAMSTER, LIVER, S-9, Method: STANDARD PLATE", "result": "inactive; negative"}, {"measurement": "mutagenic call", "setting": "Test System: E. COLI, Strain/Indicator: WP2 UVRA, Metabolic Activation: MOUSE, LIVER, S-9, AROCLOR 1254, Method: STANDARD PLATE", "result": "inactive; negative"}, {"measurement": "mutagenic call", "setting": "Test System: E. COLI, Strain/Indicator: WP2 UVRA, Metabolic Activation: MOUSE, LIVER, S-9, Method: STANDARD PLATE", "result": "inactive; negative"}, {"measurement": "mutagenic call", "setting": "Test System: E. COLI, Strain/Indicator: WP2 UVRA, Metabolic Activation: NONE, Method: STANDARD PLATE", "result": "inactive; negative"}, {"measurement": "mutagenic call", "setting": "Test System: E. COLI, Strain/Indicator: WP2 UVRA, Metabolic Activation: RAT, LIVER, S-9, AROCLOR 1254, Method: STANDARD PLATE", "result": "inactive; negative"}, {"measurement": "mutagenic call", "setting": "Test System: E. COLI, Strain/Indicator: WP2 UVRA, Metabolic Activation: RAT, LIVER, S-9, Method: STANDARD PLATE", "result": "inactive; negative"}, {"measurement": "mutagenic call", "setting": "Test System: MOUSE LYMPHOMA, Strain/Indicator: L5178Y (HPRT), Metabolic Activation: NONE, Method: SUSPENSION/PLATE", "result": "inactive; negative"}, {"measurement": "mutagenic call", "setting": "[11]", "result": "active; positive"}, {"measurement": "mutagenic call", "setting": "Test System: UDS RODENT HEPATOCYTES, Strain/Indicator: THY INCORP, Metabolic Activation: NONE, Method: IN VIVO", "result": "inactive; negative"}]}]}
